Experiments:
mfT1R2a/mfT1R3 = target: T1, mfT1R2a/mfT1R3 (Oryzias latipes, UniProt Q2MHK2+Q2MHK5); experiment: Ca2+ mobilization dose-response assay, stable cells expressing mfT1R2a/mfT1R3 with G16gust44
T1 sequence (Q2MHK5 20-819): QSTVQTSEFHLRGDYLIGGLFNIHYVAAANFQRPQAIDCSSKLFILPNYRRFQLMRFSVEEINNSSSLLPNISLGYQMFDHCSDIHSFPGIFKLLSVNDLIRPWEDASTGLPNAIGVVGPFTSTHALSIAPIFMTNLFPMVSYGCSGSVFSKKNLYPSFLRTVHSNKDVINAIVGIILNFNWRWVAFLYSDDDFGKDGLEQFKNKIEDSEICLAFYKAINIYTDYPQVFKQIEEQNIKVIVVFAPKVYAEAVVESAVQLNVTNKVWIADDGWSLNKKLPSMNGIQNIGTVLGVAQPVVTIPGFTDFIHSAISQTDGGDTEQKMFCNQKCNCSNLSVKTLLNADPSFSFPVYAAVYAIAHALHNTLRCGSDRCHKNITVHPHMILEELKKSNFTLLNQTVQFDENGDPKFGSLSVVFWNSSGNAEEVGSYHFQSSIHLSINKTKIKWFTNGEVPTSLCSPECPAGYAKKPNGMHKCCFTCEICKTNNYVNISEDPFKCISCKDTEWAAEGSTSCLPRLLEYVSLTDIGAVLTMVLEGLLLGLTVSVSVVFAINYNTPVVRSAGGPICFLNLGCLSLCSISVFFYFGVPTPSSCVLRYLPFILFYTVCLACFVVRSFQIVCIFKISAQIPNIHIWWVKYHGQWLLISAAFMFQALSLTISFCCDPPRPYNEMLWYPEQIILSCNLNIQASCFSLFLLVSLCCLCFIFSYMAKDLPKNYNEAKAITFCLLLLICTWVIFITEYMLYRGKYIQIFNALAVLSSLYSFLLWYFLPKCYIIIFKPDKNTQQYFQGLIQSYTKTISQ
T1 sequence (Q2MHK2 20-853): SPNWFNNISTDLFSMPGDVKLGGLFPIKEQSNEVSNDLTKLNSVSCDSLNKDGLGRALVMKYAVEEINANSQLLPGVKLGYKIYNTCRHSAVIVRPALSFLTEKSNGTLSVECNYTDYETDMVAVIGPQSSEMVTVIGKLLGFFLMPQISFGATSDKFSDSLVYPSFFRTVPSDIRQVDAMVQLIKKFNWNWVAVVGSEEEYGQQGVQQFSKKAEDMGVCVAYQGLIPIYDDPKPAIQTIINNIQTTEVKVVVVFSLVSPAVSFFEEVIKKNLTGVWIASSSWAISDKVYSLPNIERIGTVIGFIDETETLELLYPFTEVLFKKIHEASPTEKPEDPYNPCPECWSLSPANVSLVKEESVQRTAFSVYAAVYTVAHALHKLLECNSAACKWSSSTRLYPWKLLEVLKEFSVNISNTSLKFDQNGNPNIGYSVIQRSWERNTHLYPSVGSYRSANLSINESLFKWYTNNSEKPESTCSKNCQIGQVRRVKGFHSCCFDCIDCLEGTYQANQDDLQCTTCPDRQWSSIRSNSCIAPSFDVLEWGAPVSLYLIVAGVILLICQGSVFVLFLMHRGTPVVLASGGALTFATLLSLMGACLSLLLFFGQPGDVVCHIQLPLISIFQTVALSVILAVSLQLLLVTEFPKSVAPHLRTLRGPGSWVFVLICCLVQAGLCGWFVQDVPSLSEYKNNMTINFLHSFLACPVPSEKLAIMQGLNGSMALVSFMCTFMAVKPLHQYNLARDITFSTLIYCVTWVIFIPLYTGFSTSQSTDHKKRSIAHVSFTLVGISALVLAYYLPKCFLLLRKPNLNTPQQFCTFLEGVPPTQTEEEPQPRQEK
Method: (§1) The buffers with lower Cl^− were prepared by progressively replacing NaCl, KCl, CaCl2 and MgCl2 in the buffer with gluconate equivalents[20]. The pH was adjusted to 7.4 with NaOH. Ligands were diluted with the assay buffers at the desired concentrations.
(§2) Measurements of the responses of the cells by cell-based assay based on the intracellular Ca^2+ mobilization were carried out as described previously with some modifications[20],[34],[46],[47]. […] The cells were seeded in 96-well plates (clear-bottomed CellBIND surface plate, Corning, Glendale, AZ, USA) coated with ε-poly-L-lysine (Cosmo Bio, Tokyo, Japan) at approximately 70,000 cells per well. After 20 h, the medium was removed and replaced with high Cl^− buffer. After 3 h 30 min incubation at 27 °C, cells were loaded with 5 µM calcium-indicator dye Fluo-8 AM (AAT Bioquest, Sunnyvale, CA, USA) diluted in high Cl^− buffer. After incubation for 30 min at 27 °C, the cells were washed with buffers containing appropriate concentrations of Cl^−. The cellular assay was initiated after 3–5 min of resting and was completed within 5 min. The measurements were made using FlexStation 3 (Molecular Devices, Sunnyvale, CA, USA) at 27 °C. Fluorescence changes (i.e., excitation at 485 nm and emission at 525 nm with a cutoff at 515 nm) were monitored at 2 s intervals. A 100-µL aliquot of assay buffer supplemented with 2 × ligands was added at 20 s, and scanning was continued for an additional 40 s. The response of each well was determined as ∆RFU (delta relative fluorescent units), which was calculated as (maximum fluorescent value)—(minimum fluorescent value). […] Such normalized data from more than three independent experiments are reported as the mean ± standard error of the mean (SEM). Dose‒response fitting curves were calculated by Prism 9 (GraphPad Software, San Diego, CA) using nonlinear regression (log(agonist) vs. response—variable slope), based on the integrated data from the several independent experiments.

mfT1R2a K265E/mfT1R3 = mfT1R2a K265E/mfT1R3 (Oryzias latipes, UniProt Q2MHK2+Q2MHK5, Q2MHK5:K265E); experiment: cell-based; details: EC50, [Cl-]o=10 mM; no unit printed with values, x-axis title L-Gln [M]
Method: as §1
(§3) Measurements of the responses of the cells by cell-based assay based on the intracellular Ca^2+ mobilization were carried out as described previously with some modifications[20],[34],[46],[47]. Cell lines stably expressing T1R2, T1R3 and chimeric G-protein α-subunit, G16gust44[48], were constructed using the Flp-In pcDNA5/FRT complete system (Thermo Fisher Scientific, Waltham, MA, USA) described in our previous studies[34],[46]. […] Fluorescence changes (i.e., excitation at 485 nm and emission at 525 nm with a cutoff at 515 nm) were monitored at 2 s intervals. […] The response of each well was determined as ∆RFU (delta relative fluorescent units), which was calculated as (maximum fluorescent value)—(minimum fluorescent value). […] Dose‒response fitting curves were calculated by Prism 9 (GraphPad Software, San Diego, CA) using nonlinear regression (log(agonist) vs. response—variable slope), based on the integrated data from the several independent experiments.

mfT1R2a K295P/mfT1R3 = mfT1R2a K295P/mfT1R3 (Oryzias latipes, UniProt Q2MHK2+Q2MHK5, Q2MHK5:K295P); experiment: cell-based; details: EC50, [Cl-]o=10 mM; no unit printed with values, x-axis title L-Gln [M]
Method: as §1, §3

mfT1R2a/mfT1R3 T105E = mfT1R2a/mfT1R3 T105E (Oryzias latipes, UniProt Q2MHK2+Q2MHK5, Q2MHK2:T105E); experiment: cell-based; details: EC50, [Cl-]o=10 mM; unit inferred
Method: as §1, §3

mfT1R2a K265A/mfT1R3 = mfT1R2a K265A/mfT1R3 (Oryzias latipes, UniProt Q2MHK2+Q2MHK5, Q2MHK5:K265A); experiment: cell-based; details: EC50, [Cl-]o=10 mM; no unit printed with values, x-axis title L-Gln [M]
Method: as §1
(§4) Measurements of the responses of the cells by cell-based assay based on the intracellular Ca^2+ mobilization were carried out as described previously with some modifications[20],[34],[46],[47]. […] The cells were seeded in 96-well plates (clear-bottomed CellBIND surface plate, Corning, Glendale, AZ, USA) coated with ε-poly-L-lysine (Cosmo Bio, Tokyo, Japan) at approximately 70,000 cells per well. After 20 h, the medium was removed and replaced with high Cl^− buffer. […] Fluorescence changes (i.e., excitation at 485 nm and emission at 525 nm with a cutoff at 515 nm) were monitored at 2 s intervals. […] The response of each well was determined as ∆RFU (delta relative fluorescent units), which was calculated as (maximum fluorescent value)—(minimum fluorescent value). […] Dose‒response fitting curves were calculated by Prism 9 (GraphPad Software, San Diego, CA) using nonlinear regression (log(agonist) vs. response—variable slope), based on the integrated data from the several independent experiments.

mfT1R2b E260A/mfT1R3 = assay type: cell-based, medaka fish; details: 10 mM vs high Cl- buffer
Method: as §1, §4

zfT1R2a/zfT1R3 = target: T2, zfT1R2a/zfT1R3 (Danio rerio, UniProt A0A8M1N8F9+Q2MHK9); experiment: Ca2+ mobilization dose-response assay, stable cells expressing zfT1R2a/zfT1R3 with G16gust44
T2 sequence (A0A8M1N8F9 26-825): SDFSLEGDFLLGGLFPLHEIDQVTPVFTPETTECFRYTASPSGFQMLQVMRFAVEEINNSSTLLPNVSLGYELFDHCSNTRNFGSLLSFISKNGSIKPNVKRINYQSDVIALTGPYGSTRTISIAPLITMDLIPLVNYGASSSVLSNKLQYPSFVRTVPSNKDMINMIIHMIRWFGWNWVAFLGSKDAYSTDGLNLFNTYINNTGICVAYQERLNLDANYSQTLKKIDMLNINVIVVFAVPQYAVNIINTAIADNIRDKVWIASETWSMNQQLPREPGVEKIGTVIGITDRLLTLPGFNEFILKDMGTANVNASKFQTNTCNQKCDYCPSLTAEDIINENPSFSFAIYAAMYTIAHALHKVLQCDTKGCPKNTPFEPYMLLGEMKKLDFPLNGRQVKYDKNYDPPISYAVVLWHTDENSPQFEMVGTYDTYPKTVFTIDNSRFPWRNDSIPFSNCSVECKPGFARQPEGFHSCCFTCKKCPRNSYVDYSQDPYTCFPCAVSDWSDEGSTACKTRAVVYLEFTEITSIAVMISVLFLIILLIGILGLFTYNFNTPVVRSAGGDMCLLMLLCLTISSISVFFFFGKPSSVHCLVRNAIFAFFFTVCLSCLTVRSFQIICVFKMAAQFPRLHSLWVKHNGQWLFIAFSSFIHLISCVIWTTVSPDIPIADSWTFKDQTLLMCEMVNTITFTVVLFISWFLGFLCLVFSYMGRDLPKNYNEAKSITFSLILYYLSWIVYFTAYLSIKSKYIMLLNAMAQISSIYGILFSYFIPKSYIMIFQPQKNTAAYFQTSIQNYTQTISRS
T2 sequence (Q2MHK9 25-850): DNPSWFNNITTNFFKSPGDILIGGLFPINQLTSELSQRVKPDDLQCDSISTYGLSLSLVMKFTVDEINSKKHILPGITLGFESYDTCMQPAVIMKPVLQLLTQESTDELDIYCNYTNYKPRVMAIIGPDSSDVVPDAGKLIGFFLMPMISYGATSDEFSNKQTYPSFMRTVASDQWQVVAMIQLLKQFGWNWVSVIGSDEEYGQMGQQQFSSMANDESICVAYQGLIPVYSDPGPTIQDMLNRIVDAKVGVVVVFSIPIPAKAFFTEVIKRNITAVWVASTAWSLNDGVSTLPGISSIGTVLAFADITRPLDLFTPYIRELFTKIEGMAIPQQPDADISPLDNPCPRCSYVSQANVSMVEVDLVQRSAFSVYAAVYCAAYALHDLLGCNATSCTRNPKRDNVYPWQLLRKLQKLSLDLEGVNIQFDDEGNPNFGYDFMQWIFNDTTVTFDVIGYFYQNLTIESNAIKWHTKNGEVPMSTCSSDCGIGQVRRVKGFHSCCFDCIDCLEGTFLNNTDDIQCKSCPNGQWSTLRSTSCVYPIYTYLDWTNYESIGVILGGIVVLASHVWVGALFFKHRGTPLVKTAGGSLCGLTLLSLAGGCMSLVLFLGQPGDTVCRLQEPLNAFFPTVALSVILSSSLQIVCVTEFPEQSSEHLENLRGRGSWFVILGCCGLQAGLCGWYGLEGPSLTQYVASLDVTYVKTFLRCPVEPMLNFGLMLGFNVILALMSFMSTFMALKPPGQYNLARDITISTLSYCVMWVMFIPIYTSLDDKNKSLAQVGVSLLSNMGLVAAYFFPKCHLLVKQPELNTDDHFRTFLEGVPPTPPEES
Method: as §1, §2

mfT1R2c/mfT1R3 = mfT1R2c/mfT1R3 (Oryzias latipes, UniProt Q2MHK2+Q2MHK3); experiment: Ca2+ mobilization dose-response assay, stable cells expressing mfT1R2c/mfT1R3 with G16gust44
Method: as §1, §2

mfT1R2b E260K/mfT1R3 = assay type: cell-based, medaka fish; details: 10 mM vs high Cl- buffer
Method: as §1, §4

zfT1R2b/zfT1R3 = target: T3, zfT1R2b/zfT1R3 (Danio rerio, UniProt A0A8M1NDZ5+Q2MHK9); experiment: Ca2+ mobilization dose-response assay, stable cells expressing zfT1R2b/zfT1R3 with G16gust44; details: 10 mM vs 141.4 mM Cl- buffer
T3 sequence (A0A8M1NDZ5 18-823): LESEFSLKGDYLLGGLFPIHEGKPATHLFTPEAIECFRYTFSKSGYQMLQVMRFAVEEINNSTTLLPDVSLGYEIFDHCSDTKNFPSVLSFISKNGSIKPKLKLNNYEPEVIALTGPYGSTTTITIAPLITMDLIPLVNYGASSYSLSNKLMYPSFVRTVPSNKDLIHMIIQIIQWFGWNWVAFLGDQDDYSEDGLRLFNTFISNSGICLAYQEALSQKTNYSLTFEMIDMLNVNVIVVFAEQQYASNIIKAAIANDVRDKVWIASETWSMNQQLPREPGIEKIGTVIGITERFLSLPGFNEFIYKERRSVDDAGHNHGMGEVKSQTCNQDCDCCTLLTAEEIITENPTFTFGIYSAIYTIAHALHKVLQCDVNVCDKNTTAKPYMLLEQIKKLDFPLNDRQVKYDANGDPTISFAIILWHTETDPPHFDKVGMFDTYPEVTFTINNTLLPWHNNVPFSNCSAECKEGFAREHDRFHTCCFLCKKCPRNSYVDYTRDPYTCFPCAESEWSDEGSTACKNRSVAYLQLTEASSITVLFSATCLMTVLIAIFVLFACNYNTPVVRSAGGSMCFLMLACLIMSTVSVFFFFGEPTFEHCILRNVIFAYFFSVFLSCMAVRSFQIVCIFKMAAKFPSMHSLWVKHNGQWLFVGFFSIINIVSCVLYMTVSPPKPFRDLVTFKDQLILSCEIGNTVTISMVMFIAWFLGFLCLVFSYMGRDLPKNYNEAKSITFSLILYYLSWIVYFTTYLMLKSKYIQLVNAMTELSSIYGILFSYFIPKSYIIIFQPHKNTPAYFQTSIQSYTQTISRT
T3 sequence (Q2MHK9 25-850): T2 sequence (Q2MHK9 25-850)
Method: as §1, §2

mfT1R2b/mfT1R3 = experiment: Ca2+ mobilization dose-response assay, stable cells expressing mfT1R2b/mfT1R3 with G16gust44; details: 10 mM vs 141.4 mM Cl- buffer
Method: as §1, §4

mfT1R2c/mfT1R3 T105E = mfT1R2c/mfT1R3 T105E (Oryzias latipes, UniProt Q2MHK2+Q2MHK3, Q2MHK2:T105E); experiment: cell-based; details: EC50, [Cl-]o=10 mM; unit inferred
Method: as §1, §4

[1] = EC50, [Cl-]o=10 mM, unit inferred

Chain of mfT1R2c/mfT1R3 (Q2MHK3 22-818, one chain of several): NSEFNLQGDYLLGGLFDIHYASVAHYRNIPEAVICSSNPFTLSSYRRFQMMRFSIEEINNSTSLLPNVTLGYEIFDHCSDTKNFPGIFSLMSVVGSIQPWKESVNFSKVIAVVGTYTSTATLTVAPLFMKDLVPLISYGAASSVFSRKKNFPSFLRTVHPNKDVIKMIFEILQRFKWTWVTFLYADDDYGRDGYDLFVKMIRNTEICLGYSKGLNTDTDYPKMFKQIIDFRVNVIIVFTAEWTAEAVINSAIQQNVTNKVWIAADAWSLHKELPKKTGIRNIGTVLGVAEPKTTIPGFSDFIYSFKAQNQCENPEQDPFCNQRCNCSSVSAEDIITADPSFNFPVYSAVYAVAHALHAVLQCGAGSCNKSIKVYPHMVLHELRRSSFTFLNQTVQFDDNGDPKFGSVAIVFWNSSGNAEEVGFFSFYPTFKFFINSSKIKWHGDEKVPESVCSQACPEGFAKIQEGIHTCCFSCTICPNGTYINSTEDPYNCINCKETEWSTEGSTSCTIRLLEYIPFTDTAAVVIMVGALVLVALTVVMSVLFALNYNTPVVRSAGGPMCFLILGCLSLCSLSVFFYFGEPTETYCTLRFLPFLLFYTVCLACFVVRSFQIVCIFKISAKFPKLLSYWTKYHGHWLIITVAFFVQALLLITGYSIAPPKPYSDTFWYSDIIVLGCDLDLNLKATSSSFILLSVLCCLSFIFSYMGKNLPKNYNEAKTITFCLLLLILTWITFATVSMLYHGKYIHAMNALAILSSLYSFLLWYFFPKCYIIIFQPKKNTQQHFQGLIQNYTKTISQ
Chain of mfT1R2c/mfT1R3 T105E (Q2MHK2 entry or part of it T105E): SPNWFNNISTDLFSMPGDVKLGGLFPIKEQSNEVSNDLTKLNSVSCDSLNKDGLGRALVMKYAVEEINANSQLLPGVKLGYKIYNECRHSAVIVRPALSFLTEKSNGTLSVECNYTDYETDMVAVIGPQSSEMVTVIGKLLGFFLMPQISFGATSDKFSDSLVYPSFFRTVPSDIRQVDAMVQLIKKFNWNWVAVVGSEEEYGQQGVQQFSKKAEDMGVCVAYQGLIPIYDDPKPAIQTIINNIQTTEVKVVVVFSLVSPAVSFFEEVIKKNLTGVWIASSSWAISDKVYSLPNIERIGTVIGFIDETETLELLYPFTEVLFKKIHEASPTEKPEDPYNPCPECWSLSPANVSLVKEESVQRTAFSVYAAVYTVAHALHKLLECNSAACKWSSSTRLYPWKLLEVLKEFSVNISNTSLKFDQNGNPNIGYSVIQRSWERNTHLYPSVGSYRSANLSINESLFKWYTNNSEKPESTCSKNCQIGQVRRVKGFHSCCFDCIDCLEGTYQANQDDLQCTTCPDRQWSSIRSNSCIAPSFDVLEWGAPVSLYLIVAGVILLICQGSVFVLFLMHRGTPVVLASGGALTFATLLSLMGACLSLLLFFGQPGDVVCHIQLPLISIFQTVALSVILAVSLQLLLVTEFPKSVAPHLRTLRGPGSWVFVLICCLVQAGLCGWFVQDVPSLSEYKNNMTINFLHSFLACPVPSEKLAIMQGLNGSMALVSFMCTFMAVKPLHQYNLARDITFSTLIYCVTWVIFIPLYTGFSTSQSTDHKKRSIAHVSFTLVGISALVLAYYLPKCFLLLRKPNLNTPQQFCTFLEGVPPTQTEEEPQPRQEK
Chain of mfT1R2c/mfT1R3 T105E (Q2MHK3 entry or part of it): as the sequence (Q2MHK3 22-818, one chain of several) above
Chain of mfT1R2a/mfT1R3 T105E (Q2MHK2 entry or part of it T105E, one chain of several): as the sequence (Q2MHK2 entry or part of it T105E) above
Chain of mfT1R2a K295P/mfT1R3 (Q2MHK5 entry or part of it K295P, one chain of several): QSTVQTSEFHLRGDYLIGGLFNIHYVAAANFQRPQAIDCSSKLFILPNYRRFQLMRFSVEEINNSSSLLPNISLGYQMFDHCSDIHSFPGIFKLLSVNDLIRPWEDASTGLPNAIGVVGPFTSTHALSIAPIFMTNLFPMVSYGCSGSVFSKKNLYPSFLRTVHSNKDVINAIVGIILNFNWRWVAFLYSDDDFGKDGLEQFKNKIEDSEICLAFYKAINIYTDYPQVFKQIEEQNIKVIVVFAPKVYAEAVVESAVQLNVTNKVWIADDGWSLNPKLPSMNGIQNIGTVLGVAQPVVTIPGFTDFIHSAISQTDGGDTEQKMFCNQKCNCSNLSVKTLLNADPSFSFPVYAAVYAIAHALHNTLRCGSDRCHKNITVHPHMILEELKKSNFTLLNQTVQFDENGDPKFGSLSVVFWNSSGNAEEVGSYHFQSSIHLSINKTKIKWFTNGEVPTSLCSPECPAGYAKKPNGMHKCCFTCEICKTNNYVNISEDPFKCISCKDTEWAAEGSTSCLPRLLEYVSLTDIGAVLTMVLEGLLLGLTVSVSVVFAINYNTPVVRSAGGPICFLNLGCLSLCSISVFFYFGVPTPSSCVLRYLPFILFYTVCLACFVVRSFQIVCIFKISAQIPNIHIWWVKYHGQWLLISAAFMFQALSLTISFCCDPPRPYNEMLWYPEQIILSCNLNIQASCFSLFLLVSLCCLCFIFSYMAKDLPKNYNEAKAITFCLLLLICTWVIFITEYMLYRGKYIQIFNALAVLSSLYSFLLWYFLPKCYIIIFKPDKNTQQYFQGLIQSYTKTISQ
Chain of mfT1R2a K265A/mfT1R3 (Q2MHK5 entry or part of it K265A, one chain of several): as the sequence (Q2MHK5 entry or part of it K295P, one chain of several) above, with K246A, P276K counted along it
Chain of mfT1R2a K265E/mfT1R3 (Q2MHK5 entry or part of it K265E, one chain of several): as the sequence (Q2MHK5 entry or part of it K295P, one chain of several) above, with K246E, P276K counted along it

For NC(=O)CC[C@H](N)C(=O)O [L-Gln, L-glutamine], the “EC50 in 10 mM Cl- buffer relative to high Cl- buffer” value (mfT1R2a/mfT1R3; 10 mM vs 141.4 mM Cl- buffer) was “approximately 6.5 times higher”, the EC50 (mfT1R2a/mfT1R3; [1]) was 403 µM and the EC50 (mfT1R2a K265E/mfT1R3) was 0.000208 M. It also gave an EC50 (mfT1R2a K295P/mfT1R3) of 0.000368 M, an EC50 (mfT1R2a/mfT1R3 T105E) of 864 µM and an EC50 (mfT1R2a K265A/mfT1R3) of 0.000283 M.

O=C(O)[C@@H]1CCCN1 [L-Pro, L-proline] was tested, and the “effect of [Cl-]o on sensitivity” value (mfT1R2b E260A/mfT1R3) was “hardly affected”, the “EC50 in 10 mM Cl- buffer relative to high Cl- buffer” value (zfT1R2a/zfT1R3; 10 mM vs 141.4 mM Cl- buffer) was “approximately 5 times higher” and the EC50 (zfT1R2a/zfT1R3; [1]) was 437 µM. The “increase in EC50 in 10 mM Cl- buffer compared to high Cl- buffer” value (mfT1R2c/mfT1R3; 10 mM vs 141.4 mM Cl- buffer) was “approximately threefold increase”, the EC50 (mfT1R2c/mfT1R3; [1]) was 15 µM and the “change of EC50 value with [Cl-]o” value (mfT1R2c/mfT1R3; range from 10 to 80 mM [Cl-]o) was “almost unchanged”. For the same compound, the “effect of [Cl-]o on sensitivity” value (mfT1R2b E260K/mfT1R3) was “hardly affected”, the “EC50 in 10 mM Cl- buffer relative to high Cl- buffer” value (zfT1R2b/zfT1R3) was “approximately half” and the “effect of anionic buffer composition on sensitivity” value (mfT1R2b/mfT1R3) was “hardly affected”. The EC50 (mfT1R2c/mfT1R3 T105E) was 26.3 µM.

Source: article PMC10539361, “Allosteric modulation of the fish taste receptor type 1 (T1R) family by the extracellular chloride ion” (Scientific Reports, 2023)
